What all share (format): in vivo
Assay [1] concerns Wheat seeds. The experiment in a line: Wheat seed treatment, germination paper, shoot and root fresh weights (Example 9). As to conditions: pH 5.7-5.8, germination paper 75-85° F; for Shoot fresh weight: Control 27.4; for Roots fresh weight: Control 29.1. Here is the method: Wheat seeds were treated with 6-oxo-1,4,5,6 tetrahydropyridazine-3-carboxylic acid and the shoot and root fresh weights as shown in Table 1. Shoot and root fresh weights at this stage are components of early seedling emergence which is important for early establishment of a vigorous and productive crop. Wheat seeds were treated with a solution of either 0.1 mM or 0.01 mM 6-oxo-1,4,5,6 tetrahydropyridazine-3-carboxylic acid in an aqueous solution at pH 5.7-5.8. The seeds were placed on moist germination paper and allowed to germinate at 75-85° F. The control seeds were imbibed in aqueous solution containing only the soft soap and glycerol.

The test system of assay [2] is Wheat seeds. Nature of the assay: Wheat seed treatment, in vitro germination and early growth compared with Take Off (Example 11). Conditions: 10 g per ton of seed; petri dishes, 20C; FIG. 6. On the procedure: Referring to FIG. 6, illustrated are three photographs 600 of an In vitro assessment of the effects on the germination and early stage growth of wheat following treatment of naked wheat seed with of 6-oxo-1,4,5,6 tetrahydropyridazine-3-carboxylic acid. Untreated 610, THP 620 and a commercial seed treatment, Take Off® 630. The seed shown in 620 was grown under natural daylight conditions at 20-22 degrees Centigrade. Wheat seeds were treated with 6-oxo-1,4,5,6 tetrahydropyridazine-3-carboxylic acid or a commercial seed treatment at labeled rates (Take Off ST) and allowed to germinate to examine and compare the effects of temperature on germination. Wheat seeds were treated with 6-oxo-1,4,5,6 tetrahydropyridazine-3-carboxylic acid or Take Off, a commercial biostimulant (that claims faster germination and emergence). The treated seeds received the treatment compounds at the rate of 10 g per ton of seed utilizing the same dosing methodology as Example 1. However in this case seeds were germinated on moistened absorbent paper towel discs in closed petri dishes. The seeds were incubated at 20C in darkness until germination commenced and then grown in natural diurnal conditions for a further 12 days.

The test system of assay [3] is Wheat seeds. Nature of the assay: Wheat seed treatment, seedling emergence at two temperatures (Example 15). As to conditions: 10 g/ton of seeds. On the procedure: Wheat seeds were treated with 6-oxo-1,4,5,6-tetrahydropyridizin-3-carboxylic acid at two different temperature regimes to investigate the affect on germination. Soil temperature impacts the percentage of seeds germinating and how fast seedlings emerge from the soil. Each of these parameters influences how well the plants develop and ultimately crop yield. […] Wheat seeds were treated with 6-oxo-1,4,5,6 tetrahydropyridazine-3-carboxylic acid (THP) at a rate of 10 g/ton of seeds in accordance with the methodology of example 1. Seeds were planted in 12″×12″ germination trays in a 1″ grid, 100 seeds per tray. Growth media was coarse river sand. Additionally, each cell in the grid received one granule of Osmacote approximately above where the seed was planted. Trays were irrigated every day. The seeds were then allowed to germinate at controlled environment chambers at either 10C (50F) or 20C (68 F) to examine the effects at different temperatures. The number of seedlings emerged was tracked daily.

In assay [4] the test system is Winter wheat variety AWC 13. The experiment in a line: Wheat seed treatment, field grown, root biomass (Example 14). Conditions: untreated 0.66. Here is the method: Wheat seeds were treated with 6-oxo-1,4,5,6 tetrahydropyridizine-3-carboxylic acid treated plants to examine the impact on shoot and root biomass for field grown plants. Winter wheat variety AWC 13 seeds were treated with 6-oxo-1,4,5,6-tetrahydropyridazine-3-carboxylic acid and field grown. The plants from seeds treated with 6-oxo-1,4,5,6 tetrahydropyridazine-3-carboxylic acid had larger root biomass (0.85 g dry weight/plant) compared with plants from untreated seeds (0.66 g dry weight/plant).

Assay [5] deals with Winter wheat variety AWC 13. Nature of the assay: Wheat seed treatment, greenhouse, root biomass (Example 1). Conditions: seed treatment 10g per 1 ton of seed; greenhouse 21° C; 30 days after planting; untreated 0.65. On the procedure:
Wheat seeds were treated with 6-oxo-1,4,5,6 tetrahydropyridazine-3-carboxylic acid (THP) and treated plants to examine the impact on shoot and root biomass. Winter wheat variety AWC 13 seeds were treated with either 6-oxo-1,4,5,6-tetrahydropyridazine-3-carboxylic acid (THP) or 1-methyl 6-oxo-1,4,5,6 tetrahydropyridazine-3-carboxylic acid (MTHP) at an effective rate of 10g diluted in 2 L water plus 0.25% Nouryon wetter and applied to 1 ton of seed. These seed were planted in coarse river sand and grown in a greenhouse under ambient light at the greenhouse at 21° C. Plants were irrigated every other day with water containing 50% strength Hoaglands solution. Plants were assessed for emergence and biomass accumulation 30 days after planting. The plants from seeds treated with 6-oxo-1,4,5,6-tetrahydropyridizin-3-carboxylic acid or 1-methyl 6-oxo-1,4,5,6 tetrahydropyridazine-3-carboxylic acid had larger root biomasses (0.83, 0.85 g, dry weight/plant) compared with plants from untreated seeds (0.65 g dry weight/plant).

Assay [6] has as its system Wheat plants (Variety AWC 13). The experiment in a line: Foliar treatment of wheat, foliar and root dry biomass (Example 5). Conditions: foliar treatment at Zadoks GS 15-20, 30 days after application, mean of 10 plants. From the text: Wheat plants (Variety AWC 13) were given a foliar treatment of 6-oxo-1,4,5,6-tetrahydropyridazine-3-carboxylic acid(THP) or 1-methyl 6-oxo-1,4,5,6 tetrahydropyridazine-3-carboxylic acid (MTHP) and their foliar and root dry biomass determined 30 days after application. The foliar applications were applied at approximately at Zadoks GS 15-20 (see FIG. 1) and assessed 30 days later at Zadoks GS 22-24 (also shown in FIG. 1).

The values below come from patent publication US11800869B2, “Use of 6-oxo-1,4,5,6-tetrahydropyridazine-3-carboxylic acid, 1-methyl 6-oxo-1,4,5,6-tetrahydropyridazine-3-carboxylic acid and 1-alkyl-6-oxo-1,4,5,6-tetrahydropyridazine-3-carboxylic acid for improving growth performance in plants” (Advanced Crop Chem LLP, priority 2020, dated 2023).

Consider `O=C1CCC(C(=O)O)=NN1` [THP, 6-oxo-1,4,5,6 tetrahydropyridazine-3-carboxylic acid], for which the Shoot fresh weight with Wheat seeds [1] (seed treatment 0.01 mM) came out at 44.7 mg; in the assay on Wheat seeds [1] (seed treatment 0.1 mM), 42.1 mg. The Roots fresh weight with Wheat seeds [1] (seed treatment 0.01 mM) was determined as 48.1 mg; in the assay on Wheat seeds [1] (seed treatment 0.1 mM), 43.8 mg. Moreover, the “root biomass compared with untreated seeds or Take Off treated seeds” value in the assay with Wheat seeds [2] was “greater root biomass”. Besides, in the assay on Wheat seeds [2], the “shoots compared with untreated seeds or Take Off treated seeds” value is given as “longer bright green shoots”. The “% Emergence” value in the assay on Wheat seeds [3] (10 C., 5 days after planting) is 0%; in the assay with Wheat seeds [3] (10 C., 6 days after planting), 0%; in the assay with Wheat seeds [3] (10 C., 7 days after planting), 11%; in the assay on Wheat seeds [3] (10 C., 8 days after planting), 19%; in the assay on Wheat seeds [3] (10 C., 9 days after planting), 27%; with Wheat seeds [3] (10 C., 10 days after planting), 60%. For the same compound, the “% Emergence” value in the assay on Wheat seeds [3] (10 C., 11 days after planting) worked out at 68%; in the assay on Wheat seeds [3] (20 C., 5 days after planting), 14%; in the assay on Wheat seeds [3] (20 C., 6 days after planting) it was 48%; in the assay with Wheat seeds [3] (20 C., 7 days after planting), 80%; in the assay on Wheat seeds [3] (20 C., 8 days after planting) it was 100%; in the assay with Wheat seeds [3] (20 C., 9 days after planting), 100%. In addition, the “% Emergence” value in the assay on Wheat seeds [3] (20 C., 10 days after planting) stood at 100%; in the assay with Wheat seeds [3] (20 C., 11 days after planting), 100%. In addition, the root biomass is given as 0.85 g dry weight/plant in assay [4] and 0.83 g, dry weight/plant in assay [5]. The “Dry Weight Shoot” value in assay [6] (Con 0.47) came to 1.01. In addition, in assay [6] (Con 0.65), the “Dry Weight Root” value amounted to 1.5.
